Source: ChEMBL document CHEMBL4431301, “The Medicinal Chemistry of Dengue Virus” (J Med Chem, 2016)
Where a SMILES comes first, the peptide text is derived from it. [ ]: non-standard residue; d: D form. The star is where a group is joined. Nle = CCCC[C@H](N)C(=O)O; Bz = O=C(c1ccccc1)*

What was measured:
dengue virus type 2 [1] = test: Antiviral activity against Dengue virus 2 16681 infected in human HuH7 cells after 72 hrs by indirect immunofluorescent flow cytometry; format: functional, organism-based; conditions: Dengue virus, 16681, Huh-7, 72 h
Genome polyprotein [2] = target: T1, Genome polyprotein (dengue virus type 2, UniProt P29990); test: Inhibition of Dengue virus 2 NS2B-NS3 protease using Abz-Nle-Lys-Arg-Arg-Ser-3-(NO2)Tyr as substrate preincubated for 15 mins followed by addition of substrate measured after 15 mins by fluorescence assay
T1 sequence (P29990 1346-1475 limits assumed): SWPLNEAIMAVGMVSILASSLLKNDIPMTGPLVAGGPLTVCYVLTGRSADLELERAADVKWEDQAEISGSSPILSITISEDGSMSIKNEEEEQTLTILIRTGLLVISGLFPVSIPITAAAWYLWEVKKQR
T1 sequence (P29990 1476-2093 limits assumed): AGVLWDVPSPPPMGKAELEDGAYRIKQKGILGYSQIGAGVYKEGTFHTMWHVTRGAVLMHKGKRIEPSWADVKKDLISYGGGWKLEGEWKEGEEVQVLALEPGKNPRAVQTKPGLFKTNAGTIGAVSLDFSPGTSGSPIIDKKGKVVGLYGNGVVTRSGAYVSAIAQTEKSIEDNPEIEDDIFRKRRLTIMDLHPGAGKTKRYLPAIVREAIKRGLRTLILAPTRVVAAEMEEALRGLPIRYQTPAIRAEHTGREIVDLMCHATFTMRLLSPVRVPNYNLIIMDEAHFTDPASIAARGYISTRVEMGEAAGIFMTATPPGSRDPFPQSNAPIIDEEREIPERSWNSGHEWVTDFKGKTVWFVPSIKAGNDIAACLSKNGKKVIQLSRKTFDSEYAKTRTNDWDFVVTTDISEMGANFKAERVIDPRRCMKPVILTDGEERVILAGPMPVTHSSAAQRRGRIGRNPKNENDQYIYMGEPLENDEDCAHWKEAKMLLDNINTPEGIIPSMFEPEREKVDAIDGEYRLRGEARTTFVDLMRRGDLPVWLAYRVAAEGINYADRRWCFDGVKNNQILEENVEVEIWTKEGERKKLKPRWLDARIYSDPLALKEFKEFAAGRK

dengue virus type 2 [3] = test: Antiviral activity against Dengue virus 2 NGC infected in BHK21 cells after 24 hrs by plaque reduction assay; format: functional; conditions: BHK-21, 24 h
[4] = Cytotoxicity against BHK21 cells after 1 hr by alamar blue assay; format: cell-based, Mesocricetus auratus, BHK-21; conditions: hamster
dengue virus type 2 [5] = test: Antiviral activity against Dengue virus 2 NGC infected in african green monkey Vero cells assessed as inhibition of viral yield after 48 hrs; format: functional, organism-based
dengue virus type 1 = test: Antiviral activity against Dengue virus 1 Hawaii infected in african green monkey Vero cells assessed as inhibition of viral yield after 48 hrs; format: functional, organism-based
dengue virus type 3 [6] = test: Antiviral activity against Dengue virus 3 H87 infected in african green monkey Vero cells assessed as inhibition of viral yield after 48 hrs; format: functional, organism-based
dengue virus type 4 = test: Antiviral activity against Dengue virus 4 8124 infected in african green monkey Vero cells assessed as inhibition of viral yield after 48 hrs; format: functional, organism-based; conditions: Dengue virus, 8124, Vero
dengue virus type 2 [7] = test: Antiviral activity against Dengue virus 2 infected in BHK21 cells assessed as reduction in virus replication after 72 hrs by renilla luciferase reporter gene assay; format: functional, organism-based; conditions: BHK-21, 72 h
[8] = Selectivity index, ratio of CC50 for BHK21 cells to EC50 for Dengue virus 2 infected in BHK21 cells; format: toxicity, cell-based; conditions: hamster, read-out: Ratio CC50/EC50
dengue virus type 2 [9] = test: Antiviral activity against Dengue virus 2 NGC infected in human HuH7 cells assessed as reduction in viral titer after 24 hrs; format: functional; conditions: Huh-7, 24 h
[10] = Inhibition of Dengue virus guanine N-7 methyltransferase using RNA substrate after 20 mins in presence of [methyl-3H]-AdoMet by microbeta counting analysis
Nonstructural protein 5 = Nonstructural protein 5 (Dengue virus, UniProt V5TFZ2); test: Inhibition of Dengue virus ribose 2'-O methyltransferase using RNA substrate after 20 mins in presence of [methyl-3H]-AdoMet by microbeta counting analysis
Sequence of Nonstructural protein 5 (V5TFZ2 whole entry): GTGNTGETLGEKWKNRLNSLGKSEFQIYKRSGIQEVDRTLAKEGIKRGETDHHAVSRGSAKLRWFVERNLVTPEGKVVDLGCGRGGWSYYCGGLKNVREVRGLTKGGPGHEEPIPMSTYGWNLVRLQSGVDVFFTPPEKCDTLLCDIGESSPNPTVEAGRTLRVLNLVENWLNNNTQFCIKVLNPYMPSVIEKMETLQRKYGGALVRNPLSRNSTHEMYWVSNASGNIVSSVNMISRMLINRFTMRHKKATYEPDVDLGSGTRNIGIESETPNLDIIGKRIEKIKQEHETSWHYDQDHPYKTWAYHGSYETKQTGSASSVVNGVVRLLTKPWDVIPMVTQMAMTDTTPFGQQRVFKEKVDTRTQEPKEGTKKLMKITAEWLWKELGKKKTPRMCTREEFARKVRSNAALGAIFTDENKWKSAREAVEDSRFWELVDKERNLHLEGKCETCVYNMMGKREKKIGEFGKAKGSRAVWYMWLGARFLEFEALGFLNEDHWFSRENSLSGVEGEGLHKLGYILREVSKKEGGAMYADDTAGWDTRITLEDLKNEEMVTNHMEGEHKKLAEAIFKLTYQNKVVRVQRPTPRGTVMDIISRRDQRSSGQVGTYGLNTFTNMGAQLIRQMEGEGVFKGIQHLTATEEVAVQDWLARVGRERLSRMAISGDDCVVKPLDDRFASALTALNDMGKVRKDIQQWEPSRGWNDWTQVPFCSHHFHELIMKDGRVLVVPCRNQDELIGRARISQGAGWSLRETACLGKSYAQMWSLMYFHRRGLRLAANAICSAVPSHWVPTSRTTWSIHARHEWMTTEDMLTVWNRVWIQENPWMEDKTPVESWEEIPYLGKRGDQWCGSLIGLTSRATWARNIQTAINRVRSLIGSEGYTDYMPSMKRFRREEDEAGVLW

[11] = Binding affinity to His-tagged Dengue virus 3 methyltransferase expressed in Escherichia coli Rosetta 2(DE3) by VP-ITC isothermal titration calorimetry; set-up: species or system dengue virus type 3
dengue virus type 3 [12] = test: Potency index, ratio of S-adenosyl-L-methionine Kd to sinefungin Kd for His-tagged Dengue virus 3 methyltransferase expressed in Escherichia coli Rosetta 2(DE3)
dengue virus type 2 [13] = test: Antiviral activity against Dengue virus 2 3295 infected in BHK21 cells after 48 hrs by CFI assay; format: functional, organism-based; conditions: Dengue virus, 3295, BHK-21, 48 h
dengue virus type 2 [14] = test: Antiviral activity against Dengue virus 2 NGC infected in human A549 cells assessed as reduction in virus replication after 48 hrs by renilla luciferase reporter gene assay; format: functional, organism-based; conditions: A549, 48 h
dengue virus type 2 [15] = test: Antiviral activity against Dengue virus 2 NGC infected in human HuH7 cells assessed as reduction in virus replication after 48 hrs by renilla luciferase reporter gene assay; format: functional, organism-based; conditions: Huh-7, 48 h
[16] = Cytotoxicity against human HuH7 cells assessed as cell viability after 48 hrs by CellTiter Glo assay; format: cell-based, Huh-7
Junin virus = test: Antiviral activity against Junin virus IV4454 infected in african green monkey Vero cells assessed as inhibition of viral yield after 48 hrs; format: functional, organism-based; conditions: Mammarenavirus juninense
dengue virus type 2 [17] = test: Antiviral activity against Dengue virus 2 NGC infected in BHK21 cells after 48 hrs by plaque reduction assay; format: functional, organism-based; conditions: BHK-21, 48 h
Genome polyprotein [18] = target: T1, Genome polyprotein; test: Inhibition of recombinant Dengue virus type 2 NS2B-NS3 protease expressed in Escherichia coli C41 cells using GRR-AMC as substrate after 15 mins by fluorescence assay
dengue virus type 2 [19] = test: Antiviral activity against Dengue virus 2 infected in BHK21 cells assessed after 3 to 5 days by crystal violet staining based plaque assay; format: functional, organism-based; conditions: BHK-21
dengue virus type 2 [20] = test: Antiviral activity against Dengue virus 2 NGC infected in african green monkey Vero cells assessed as reduction in viral titer after 48 hrs by plaque assay; format: functional, organism-based
[21] = Oral bioavailability in AG129 mouse plasma at 50 mg/kg/day after 1 to 24 hrs by LC-MS/MS; format: ADME, organism-based
dengue virus type 2 [22] = test: Antiviral activity against Dengue virus 2 NGC infected through intraperitoneal route in AG129 mouse assessed as reduction in peak plasma viremia at 50 mg/kg, ip bid measured on day 3 by plaque assay relative to vehicle-treated control; format: functional
dengue virus type 2 [23] = test: Antiviral activity against Dengue virus 2 NGC infected through intraperitoneal route in AG129 mouse assessed as reduction of viral load in spleen at 50 mg/kg, ip bid measured on day 3 by plaque assay relative to vehicle-treated control; format: functional
dengue virus type 2 [24] = test: Antiviral activity against Dengue virus 2 NGC infected through intraperitoneal route in AG129 mouse assessed as reduction of viral load in liver at 50 mg/kg, ip bid measured on day 3 by plaque assay relative to vehicle-treated control; format: functional

`COc1c(C)c2c(c(O)c1C/C=C(\C)CCC(=O)O)C(=O)OC2` [MYCOPHENOLIC ACID] gave an EC50 (dengue virus type 2 [1]) of 1.9 µM.
With `CCCC[C@H](NC(=O)[C@H](CCCCN)NC(=O)[C@H](CCCNC(=N)N)NC(=O)c1ccccc1)C(N)=O` (Bz-Arg-Lys-[Nle]-NH2) the Ki (Genome polyprotein [2]) was 15.6 µM.
`N#C/C(=N\Nc1cccc(Cl)c1)C(=O)c1ccco1` gave an IC90 (dengue virus type 2 [3]) of 16.9 µM and a CC50 at 1 h [4] of over 100 µM.
Molecule `C=CCn1c2ccc(Cl)cc2c(=O)c2cccc(OC)c21` has an EC50 (dengue virus type 2 [5]) of 13.5 to 27.1 µM, an EC50 (dengue virus type 1) of 13.5 to 27.1 µM and an EC50 (dengue virus type 3 [6]) of 13.5 to 27.1 µM. The EC50 (dengue virus type 4) was 13.5 to 27.1 µM.
`Cc1cc(N2C(=O)C(O)=C(C(=O)c3ccc(C)o3)C2c2cc(Cl)cc(Cl)c2)no1` (configuration not stated) gave an EC50 (dengue virus type 2 [7]) of 36 µM and a selectivity ratio [8] of 4.5.
`CN1CCN(CCOc2cc(OC3CCOCC3)c3c(Nc4c(Cl)ccc5c4OCO5)ncnc3c2)CC1` [SARACATINIB] showed an EC90 (dengue virus type 2 [9]) of 12.2 µM.
In the case of `Nc1ncnc2c1ncn2[C@@H]1O[C@H](C[C@@H](N)CC[C@H](N)C(=O)O)[C@@H](O)[C@H]1O` [SINEFUNGIN], the IC50 [10] is reported as 30 nM, the IC50 (Nonstructural protein 5) is reported as 41 nM and the Kd [11] is reported as 136 nM. It also gave a Ratio (dengue virus type 3 [12]) of 6.
`O[C@H]1[C@H](O)[C@@H](O)CN2CC[C@H](O)[C@H]12` [CASTANOSPERMINE] showed an EC50 (dengue virus type 2 [13]) of 28 µM.
`CCC(C)(C)C(=O)O[C@H]1C[C@@H](C)C=C2C=C[C@H](C)[C@H](CC[C@@H]3C[C@@H](O)CC(=O)O3)[C@H]21` [SIMVASTATIN] gave an EC50 (dengue virus type 2 [14]) of 1.82 to 8.75 µM.
Molecule `C=C1C(=O)OC(CCCCCCCC)C1C(=O)O` (configuration not stated) has an EC50 (dengue virus type 2 [15]) of 5.7 µM and a CC50 at 48 h [16] of over 100 µM.
For `CO[C@@H]1[C@H]2OC(C)(C)O[C@H]2O[C@@H]1C(=O)c1cnc2sc(C(=O)c3ccc(Br)cc3)cn12`, the EC50 (dengue virus type 2 [5]) was 29.9 µM and the EC50 (Junin virus) was 12 µM.
With `CCCCCCCCCN1C[C@H](O)[C@@H](O)[C@H](O)[C@H]1CO` the EC50 (dengue virus type 2 [17]) was 1000 nM.
Molecule `CC(=O)N[C@@H](CCCNC(=N)N)C(=O)N[C@H](C(=O)N[C@@H](CO)C(=O)N[C@@H](CCCCN)C(=O)N[C@@H](CCCCN)C(=O)N[C@@H](CCCNC(=N)N)C(N)=O)[C@@H](C)O` (Ac-RTSKKR-NH2) has a Ki (Genome polyprotein [18]) of 12 µM.
Molecule `CCN(CC)CCCC(C)Nc1ccnc2cc(Cl)ccc12` (configuration not stated) [CHLOROQUINE] has an EC90 (dengue virus type 2 [19]) of 5.04 µM.
`Nc1c(C(=O)Nc2nnc(-c3ccccc3)s2)sc2nc3c(cc12)CCCCC3` showed an EC50 (dengue virus type 2 [20]) of 16 nM, an EC90 (dengue virus type 2 [20]) of 125 nM and a bioavailability [21] of 9.1%. For the same molecule, the “fold change (FC)” value (dengue virus type 2 [22]) was 52, the “fold change (FC)” value (dengue virus type 2 [23]) was 3 and the “fold change (FC)” value (dengue virus type 2 [24]) was 20.
Molecule `NC(=O)c1ncn([C@@H]2O[C@H](CO)[C@@H](O)[C@H]2O)n1` [RIBAVIRIN] has an EC50 (dengue virus type 2 [1]) of 40 µM.
Molecule `CC(C)n1c(/C=C/C(O)CC(O)CC(=O)O)c(-c2ccc(F)cc2)c2ccccc21` (configuration not stated) [FLUVASTATIN] has an EC50 (dengue virus type 2 [14]) of 1.82 to 8.75 µM.
